Tests used:
[1] = system: interleukin 6 (IL-6); experiment: Cytokine mix (CTX)-induced IL-6 release in normal human dermal fibroblasts (ELISA); format: cell-based; conditions: Zinc 100 uM; for Relative Change (%) Compared to CTX: Table 5, IL-6, nHDF; for Relative Change (%) Compared to CTX / reduction of CTX-mediated increase of IL-6: CTX 0.025 ng/ml; for Relative Change (%) Compared to CTX / % reduction IL-6: UA 2.5 uM; for % reduction IL-6: Table 6, IL-6 concentration in cell supernatant, CTX vs CTX + treatment; for reduction of CTX-mediated increase of IL-6: nHDF, urolithin A 2.5 uM, 24 h pre-treatment + 24 h co-treatment
Description: The protective effects of urolithin A and Zinc against inflammation induced by a cytokines mix (Cytomix, CTX) in human dermal fibroblasts (nHDF cells) were investigated. A dose of 0.025 ng/ml of Cytokines mix was applied to induce inflammation, measured by quantifying the levels of the pro-inflammatory cytokine interleukin 6 (IL-6) in the cell culture supernatant. For the experiment, cells were first pre-treated with either i) urolithin A 2.5 uM, ii) Zinc at 100 uM, iii) a combination of urolithin A 2.5 uM and Zinc 100 uM, iv) or DMSO as control for 24 h. Then cells were co-treated with both CTX and either urolithin A or Zinc alone or in combination, as above. After 24h, IL-6 was measured in the cell supernatant to assess the ability of Urolithin A and Zinc to reduce Cytokines-induced inflammation.
Normal Human dermal fibroblasts (nHDF) purchased from Promocell (ref. C-12302) were seeded at 6000 cells per well in a 96 well plate (Greiner) using a DMEM Glutamax 1 g D-glucose (Gibco, ref 21885108) supplemented with FBS 10% (PanBiotech, ref P30-3033), 1% PenStrep (Biowest) and 1% Hepes (Biowest). All media were sterilized with a 0.45 μm filter unit (VWR). The day after the seeded cells were treated for 24 h with 1) Urolithin A (UA) resuspended in DMSO, Zinc gluconate (MedChemExpress Ref. HY-W145499) or a combination of the two at the indicated doses. Cytokine mix (“cytomix”) was added in addition of the previous treatment for another 24h, cytokines were used equally for a total and final concentration of 0.025 ng/ml (mIFN-g (roche ref.11276905001), TNF-α (Peprotech ref. 300-01A) and IL-b (Proteintech ref. 200-01B)). The medium was collected and an ELISA for Interleukin-6 were performed following the instruction provided by the supplier (Proteintech ref. KE10007). Finally, the absorbance at a wavelength of 450 nm was measured using a microplate plate reader (Fluostar Optima, BMG Labtech). IL-6 data were finally normalized over cell number, calculated with a cell viability assay (Promega, ref. G7571).

[2] = system: C2C12 myotubes; experiment: Fatty acid oxidation / mitochondrial respiration analysis on C2C12 myotubes (Seahorse XF96); format: cell-based, Mouse; conditions: UA 50 uM, Astaxanthin 20 uM; for induced mitochondrial respiration / Relative Change (%) Compared to DMSO 0.1%: C2C12 myotubes; for induced mitochondrial respiration: 24 hours treatment, vs DMSO; for % increase in maximal mitochondrial respiration: Table 3: change in maximal mitochondrial respiration vs DMSO, 24 hours; for Relative Change (%) Compared to DMSO 0.1%: Table 4
Description: Fatty acid oxidation analysis on C2C12 myotubes was measured with a Seahorse XF96 extracellular flux analyzer. […] were seeded at 8,000 cells/well in an XF96 cell culture microplate. Once cells reached confluence, they were differentiated with DMEM (Gibco, 31966047) supplemented with 2% Horse serum, 1% PenStrep and 1% Hepes for 5 days. Cells were treated with UA 50 uM (Amazentis) and Astaxanthin 20 uM (MedChemExpress, LKT-A7476) for 24 hours in substrate-limited media (Gibco, A1443001) supplemented with 0.5 mM glucose, 1 mM glutamine, 1% Oleic acid and 0.5 mM L-Carnitine. Maximal respiration was monitored by injection of 3 µM FCCP in the cartridge. Prior to the assay, cells were incubated in a Fatty acid oxidation medium (111 mM NaCl, 4.7 mM KCl, 1.25 mM CaCI2, 2 mM MgSO4, 1.2 mM NaH2PO4, 5 mM L-Carnitine, 5 mM Hepes, 2.5 mM Glucose) for 20 min, solution must be adjusted to pH 7.4 at 37° C. Mouse muscle C2C12 myotubes were treated for 24 hours with either Urolithin A alone, Astaxanthin alone or a combination of both compounds. Urolithin A alone induced mitochondrial respiration (+8.5%, Table 4). Astaxanthin alone induced mitochondrial respiration (+3.2% Table.4).

| Molecule | Relative Change (%) Compared to CTX [1] | % reduction IL-6 [1] | reduction of CTX-mediated increase of IL-6 [1] | induced mitochondrial respiration [2] | % increase in maximal mitochondrial respiration [2] | Relative Change (%) Compared to DMSO 0.1% [2] |
| --- | --- | --- | --- | --- | --- | --- |
| Zinc gluconate | −29.57% | −29.6% | 29.6% |  |  |  |
| O=c1oc2cc(O)ccc2c2ccc(O)cc12 [Urolithin A] | −25.05% | 25% | 25% | +8.5% | +8.5% | 8.4% |
| CC1=C(/C=C/C(C)=C/C=C/C(C)=C/C=C/C=C(C)/C=C/C=C(C)/C=C/C2=C(C)C(=O)[C@@H](O)CC2(C)C)C(C)(C)C[C@H](O)C1=O [Astaxanthin] |  |  |  | +3.2% | +3.3% | 2.6% |

From patent publication US20250367099A1, “UROLITHIN COMBINATIONS” (priority 2024, published 2025)
